The source made the active and inactive calls. Rule as the data show it, for most assays here: actives have a measured IC50 and inactives only a lower limit.
Tests used:
Type in all cases: functional
cells = test: cells
[1] = molecular target: T1, Carboxy-terminal domain RNA polymerase II polypeptide A small phosphatase 1 (Homo sapiens, UniProt Q9GZU7); test: inhibitors of CTDSP1, concentration-response testing, biochemical assay, absorbance-based, actives from ultra-high-throughput screening (AID 540297)
T1 sequence (Q9GZU7 whole entry): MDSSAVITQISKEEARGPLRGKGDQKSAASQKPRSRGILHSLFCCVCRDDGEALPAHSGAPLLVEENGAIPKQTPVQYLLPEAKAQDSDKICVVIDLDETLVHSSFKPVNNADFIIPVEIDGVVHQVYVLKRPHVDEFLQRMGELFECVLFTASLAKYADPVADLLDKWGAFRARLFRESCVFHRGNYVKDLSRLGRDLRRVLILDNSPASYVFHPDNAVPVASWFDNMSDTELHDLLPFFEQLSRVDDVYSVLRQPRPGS

[2] = molecular target: T2, Sentrin-specific protease 7 (Homo sapiens, UniProt Q9BQF6);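 also: Luminescence-based dose-response confirmation of ultra-high-throughput screening hits, measuring inhibition of SENP7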
T2 sequence (Q9BQF6 whole entry): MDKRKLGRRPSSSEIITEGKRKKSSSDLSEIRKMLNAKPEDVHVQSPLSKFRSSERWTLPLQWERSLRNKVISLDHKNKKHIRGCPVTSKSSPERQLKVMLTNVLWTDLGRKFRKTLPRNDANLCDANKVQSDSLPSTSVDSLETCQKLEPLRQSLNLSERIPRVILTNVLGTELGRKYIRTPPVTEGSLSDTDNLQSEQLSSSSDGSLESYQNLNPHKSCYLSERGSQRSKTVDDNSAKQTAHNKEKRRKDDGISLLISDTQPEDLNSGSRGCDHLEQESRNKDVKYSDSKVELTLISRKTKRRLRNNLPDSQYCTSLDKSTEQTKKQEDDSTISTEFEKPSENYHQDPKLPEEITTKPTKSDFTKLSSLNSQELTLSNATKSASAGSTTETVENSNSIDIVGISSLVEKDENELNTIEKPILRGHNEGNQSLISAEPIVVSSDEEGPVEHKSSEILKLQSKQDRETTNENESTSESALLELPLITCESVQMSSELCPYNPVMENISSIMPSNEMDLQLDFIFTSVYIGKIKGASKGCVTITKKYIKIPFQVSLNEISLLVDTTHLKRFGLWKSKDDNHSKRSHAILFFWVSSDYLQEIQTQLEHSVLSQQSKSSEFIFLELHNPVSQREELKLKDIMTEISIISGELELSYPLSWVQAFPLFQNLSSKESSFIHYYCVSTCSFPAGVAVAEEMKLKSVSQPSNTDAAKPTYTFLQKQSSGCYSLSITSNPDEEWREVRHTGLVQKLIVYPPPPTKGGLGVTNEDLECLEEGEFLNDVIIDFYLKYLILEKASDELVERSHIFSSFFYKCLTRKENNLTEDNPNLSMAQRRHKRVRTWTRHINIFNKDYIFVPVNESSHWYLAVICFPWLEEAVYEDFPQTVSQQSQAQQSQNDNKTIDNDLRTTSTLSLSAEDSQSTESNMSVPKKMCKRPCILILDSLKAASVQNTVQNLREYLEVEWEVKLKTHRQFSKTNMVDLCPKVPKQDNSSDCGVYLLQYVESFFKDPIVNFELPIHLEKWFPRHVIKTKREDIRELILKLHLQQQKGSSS

[3] = molecular target: T3, Sentrin-specific protease 6 (Homo sapiens, UniProt Q9GZR1);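 also: Luminescence-based dose-response confirmatory assay of SENP6 inhibition, following up an ultra-high-throughput screen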
T3 sequence (Q9GZR1 whole entry): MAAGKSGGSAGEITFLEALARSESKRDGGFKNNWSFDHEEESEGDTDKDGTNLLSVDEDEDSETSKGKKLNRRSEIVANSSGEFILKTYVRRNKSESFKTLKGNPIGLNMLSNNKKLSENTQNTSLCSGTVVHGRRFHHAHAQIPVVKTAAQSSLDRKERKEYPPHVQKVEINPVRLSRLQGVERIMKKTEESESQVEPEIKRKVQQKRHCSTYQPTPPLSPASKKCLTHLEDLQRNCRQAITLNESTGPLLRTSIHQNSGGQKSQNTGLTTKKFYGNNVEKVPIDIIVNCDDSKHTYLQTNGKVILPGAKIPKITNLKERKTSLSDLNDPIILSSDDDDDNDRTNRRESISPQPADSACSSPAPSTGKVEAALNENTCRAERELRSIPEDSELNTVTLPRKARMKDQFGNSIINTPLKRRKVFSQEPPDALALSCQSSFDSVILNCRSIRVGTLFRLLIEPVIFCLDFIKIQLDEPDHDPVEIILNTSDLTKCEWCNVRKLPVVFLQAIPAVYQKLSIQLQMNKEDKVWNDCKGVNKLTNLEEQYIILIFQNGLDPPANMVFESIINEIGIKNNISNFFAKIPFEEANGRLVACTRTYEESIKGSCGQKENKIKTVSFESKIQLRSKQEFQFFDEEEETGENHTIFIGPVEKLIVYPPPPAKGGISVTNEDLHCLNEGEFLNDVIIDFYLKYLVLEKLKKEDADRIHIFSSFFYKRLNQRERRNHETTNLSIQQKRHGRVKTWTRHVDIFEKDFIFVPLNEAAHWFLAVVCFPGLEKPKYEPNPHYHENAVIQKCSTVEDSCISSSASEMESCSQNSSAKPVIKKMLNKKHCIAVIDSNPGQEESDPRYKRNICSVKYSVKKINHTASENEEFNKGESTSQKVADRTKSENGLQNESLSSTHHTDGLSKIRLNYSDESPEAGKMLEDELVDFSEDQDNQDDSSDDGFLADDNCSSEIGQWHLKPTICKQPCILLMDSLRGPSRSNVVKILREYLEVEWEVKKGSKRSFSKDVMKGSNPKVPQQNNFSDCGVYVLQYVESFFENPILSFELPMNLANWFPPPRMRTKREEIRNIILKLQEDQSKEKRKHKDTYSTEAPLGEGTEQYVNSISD

[4] = molecular target: T4, Sentrin-specific protease 8 (Homo sapiens, UniProt Q96LD8);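 also: luminescence read-out of SENP8 inhibition, dose-response confirmation following an ultra-high-throughput screen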
T4 sequence (Q96LD8 whole entry): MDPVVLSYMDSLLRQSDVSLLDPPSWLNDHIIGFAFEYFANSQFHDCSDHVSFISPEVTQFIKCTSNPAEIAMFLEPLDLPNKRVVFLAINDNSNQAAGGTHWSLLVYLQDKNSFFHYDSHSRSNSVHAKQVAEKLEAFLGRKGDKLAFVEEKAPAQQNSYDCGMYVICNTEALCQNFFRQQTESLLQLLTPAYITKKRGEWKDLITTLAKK

Caspase-3 = molecular target: T5, Caspase-3 (Homo sapiens, UniProt P42574);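 also: Dose-response selectivity test against caspase-3 for candidate inhibitors of sentrin-specific proteases (SENPs)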
T5 sequence (P42574 whole entry): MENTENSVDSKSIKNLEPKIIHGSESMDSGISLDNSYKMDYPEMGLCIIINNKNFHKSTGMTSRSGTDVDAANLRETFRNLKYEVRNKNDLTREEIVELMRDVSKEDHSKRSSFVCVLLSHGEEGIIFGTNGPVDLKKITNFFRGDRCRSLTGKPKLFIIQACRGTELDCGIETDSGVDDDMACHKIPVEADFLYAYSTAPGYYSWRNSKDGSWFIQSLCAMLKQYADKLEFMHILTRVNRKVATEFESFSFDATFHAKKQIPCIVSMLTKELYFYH

[5] = molecular target: T6, Heat shock factor protein 1 (Mus musculus, UniProt P38532); test: HSF1 potentiators in luciferase reporter cells, confirmation, cell-based, NIH3T3, luminescence, dose retest (AID 435004);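 also: stress induced by proteasome inhibitor MG132 added 30 min after compound; luciferase reporter driven by HSF1 response element in NIH3T3 cells; actives raise luminescence as potentiators of the MG132 stress response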
T6 sequence (P38532 whole entry): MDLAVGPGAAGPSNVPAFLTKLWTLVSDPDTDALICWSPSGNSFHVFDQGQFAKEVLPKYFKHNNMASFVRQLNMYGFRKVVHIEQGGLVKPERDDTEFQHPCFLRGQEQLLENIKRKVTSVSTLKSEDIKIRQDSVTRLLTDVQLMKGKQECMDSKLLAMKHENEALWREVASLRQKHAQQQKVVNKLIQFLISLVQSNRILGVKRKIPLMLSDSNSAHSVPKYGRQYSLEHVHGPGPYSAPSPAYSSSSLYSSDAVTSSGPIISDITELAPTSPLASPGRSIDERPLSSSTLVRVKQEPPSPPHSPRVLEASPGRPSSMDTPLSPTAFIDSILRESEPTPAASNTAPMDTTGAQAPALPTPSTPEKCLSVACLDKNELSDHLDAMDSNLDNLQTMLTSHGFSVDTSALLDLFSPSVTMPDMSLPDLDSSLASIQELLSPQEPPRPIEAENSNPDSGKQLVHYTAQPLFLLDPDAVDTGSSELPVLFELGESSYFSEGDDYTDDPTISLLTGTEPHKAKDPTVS

[6] = molecular target: T6, Heat shock factor protein 1; test: inhibition of MG132-induced HSE-luciferase signal, confirmation, cell-based, NIH3T3, luminescence, dose retest (AID 2382);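 also: NIH3T3 fibroblasts with HSF1-driven luciferase reporter stressed by proteasome inhibitor MG132; luminescence from HSF1-driven luciferase expression after 8 hours of MG132 stress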
[7] = molecular target: T7, Corticotropin-releasing factor receptor 2/Corticotropin-releasing factor-binding protein (Homo sapiens, UniProt P24387+Q13324); test: activators of CRF receptor 2 with binding protein – uHTS hits, confirmation (AID 602473); settings: read-out: EC50_Mean
T7 sequence (Q13324 whole entry): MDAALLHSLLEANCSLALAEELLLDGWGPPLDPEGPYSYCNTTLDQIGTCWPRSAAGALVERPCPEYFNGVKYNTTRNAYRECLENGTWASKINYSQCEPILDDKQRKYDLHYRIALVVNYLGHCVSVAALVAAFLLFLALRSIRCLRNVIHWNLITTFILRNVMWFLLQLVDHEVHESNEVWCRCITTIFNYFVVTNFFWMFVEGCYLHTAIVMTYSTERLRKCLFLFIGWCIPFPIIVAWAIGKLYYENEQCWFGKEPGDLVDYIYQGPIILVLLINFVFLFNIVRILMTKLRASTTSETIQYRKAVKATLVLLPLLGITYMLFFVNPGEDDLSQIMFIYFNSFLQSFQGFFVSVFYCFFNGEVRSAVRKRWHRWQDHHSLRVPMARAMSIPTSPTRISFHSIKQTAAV
T7 sequence (P24387 whole entry): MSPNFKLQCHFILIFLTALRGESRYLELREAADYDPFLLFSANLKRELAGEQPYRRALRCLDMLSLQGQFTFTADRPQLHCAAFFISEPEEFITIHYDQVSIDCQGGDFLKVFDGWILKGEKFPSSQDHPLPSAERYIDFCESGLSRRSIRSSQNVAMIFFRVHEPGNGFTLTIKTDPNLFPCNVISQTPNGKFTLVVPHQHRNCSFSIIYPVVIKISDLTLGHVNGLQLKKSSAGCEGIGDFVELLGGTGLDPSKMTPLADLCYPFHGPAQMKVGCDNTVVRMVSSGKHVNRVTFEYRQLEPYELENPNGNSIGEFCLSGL

[8] = molecular target: T7, Corticotropin-releasing factor receptor 2/Corticotropin-releasing factor-binding protein; test: Dose Response confirmation of uHTS hits for small molecule antagonists of the CRF-binding protein and CRF-R2 receptor complex.; settings: read-out: IC50_Mean

Compound: O=C(COC(=O)c1ccc(Br)o1)NCCCc1ccccc1
- IC50 (cells): 38.5 µM (active)

Compound: Cc1sc2ncnc(SCC(=O)Nc3ncccc3O)c2c1C
- IC50 [1]: 5.35 µM (active)

Compound: O=C(OCC(=O)N1CCCC1)c1cc(Br)ccc1Cl
- IC50 (cells): 22 µM (active)

Compound: CNC(=S)Nc1ccc(-c2nc3ccc(C)cc3s2)cc1
- IC50 [2]: 3.62 µM (active)
- IC50 [3]: 5.18 µM (active)
- IC50 [4]: 5.47 µM (active)
- IC50 (Caspase-3): 7.31 µM (active)

Compound: Cc1cccc(-c2noc(-c3c(C)noc3C)n2)c1
- IC50 [2]: 6.22 µM (active)
- IC50 [3]: > 100 µM (inactive)
- IC50 [4]: > 100 µM (inactive)
- IC50 (Caspase-3): 29.8 µM (active)

Compound: CCC1CCc2sc(C(=O)NNC(=O)c3ccncc3)cc2C1 (centres undefined)
- IC50 (cells): 21.6 µM (active)

Compound: Cc1csc(NC(=O)c2ccc(Br)s2)n1
- IC50 [2]: 7.6 µM (active)
- IC50 [3]: 24.9 µM (active)
- IC50 [4]: 27.4 µM (active)
- IC50 (Caspase-3): 14 µM (active)

Compound: Cc1cccc(NC(=O)CN2C(=O)S/C(=C\c3ccc(-c4cccc(C(=O)O)c4C)o3)C2=O)c1
- IC50 [1]: 3.95 µM (active)

Compound: CSc1nc2ccc(NC(=O)C3CC(=O)N(Cc4ccccc4)C3)cc2s1 (centres undefined)
- IC50 (cells): 11.4 µM (active)

Compound: Cc1ccc(-c2c(NCCc3ccccc3)c(=O)c2=O)cc1
- IC50 [1]: 9.66 µM (active)

Compound: O=C(CCS(=O)(=O)c1ccc(Br)cc1)NCCc1ccccc1
- IC50 [1]: 26.3 µM (active)

Compound: Cc1ccc(C(=O)OCC(=O)c2ccc(Cl)s2)s1
- IC50 [2]: 7.61 µM (active)
- IC50 [3]: 24.6 µM (active)
- IC50 [4]: 29.7 µM (active)
- IC50 (Caspase-3): 18.9 µM (active)
- EC50 [5]: 20.3 µM (active)

Compound: Cn1c(C(=O)NN)cc2cc(OCc3ccccc3)ccc21
- EC50 [6]: > 195 µM (not active)

Compound: Cc1cccc(N2C(N)=NC(N)=NC23CCCCC3)c1
- EC50 [7]: > 53 µM (inactive)
- IC50 [8]: > 47.1 µM (inactive)

Compound: Cc1cc(C)cc(NC(=O)Cn2nnc(C(=O)NCc3ccc(F)cc3)c2N)c1
- EC50 [7]: > 53 µM (inactive)
- IC50 [8]: > 47.1 µM (inactive)

Compound: CCCNC(=O)C1CC(=O)N(c2ccc(OCC)cc2)C1 (centres undefined)
- EC50 [7]: > 53 µM (inactive)
- IC50 [8]: > 47.1 µM (inactive)

Compound: CCO[C@@H]1OC(C(N)=O)=C[C@H](C(C)(C)C)[C@H]1CCCO
- EC50 [7]: > 53 µM (inactive)
- IC50 [8]: > 47.1 µM (inactive)

Compound: COc1cc(C(=O)O)c2ccccc2n1
- EC50 [7]: > 53 µM (inactive)
- IC50 [8]: < 0.368 µM (active)

Compound: CC[C@]12c3[nH]c4ccc(OC)cc4c3CCN1C(=O)C(CC(=O)NCCCOC)C[C@@H]2C(=O)N1CCN(C(=O)c2ccco2)CC1 (some centres undefined)
- EC50 [7]: > 53 µM (inactive)
- IC50 [8]: > 47.1 µM (inactive)

Compound: O=C(N/N=C/C=C/c1ccco1)c1ccncc1
- IC50 (cells): 1.31 µM (active)

Compound: Cc1ccc(Cn2ccs/c2=N\C(=O)COC(=O)c2ccc(O)cc2O)cc1
- IC50 [2]: 7.79 µM (active)
- IC50 [3]: 10.6 µM (active)
- IC50 [4]: > 100 µM (inactive)
- IC50 (Caspase-3): 37.1 µM (active)

Compound: COc1ccc(/C=N/NC(=O)CN(C)S(=O)(=O)c2ccc(NC(C)=O)cc2)cc1
- EC50 [6]: > 195 µM (not active)

Reference: ChEMBL document CHEMBL1201862, “PubChem BioAssay data set” (2004)
